Experiments:
[1] = cited from earlier work
[2] = Biodistribution and elimination of 223Ra in mice after i.v. administration; assay type: in vivo, female outbred CD1 mice
Protocol: (§1) The study was performed in female outbred CD1 mice imported from Charles River breeds. Animals were housed in groups of five and acclimated over five days. After acclimatization, the animals were divided into four groups. The day before the experiment the feed was taken away and at the beginning of the experiment itself the animals were weighed and placed in cages individually on a nonwoven fabric. After administration of ^223Ra (ca 200 kBq/animal in 0.05 ml of physiological saline) through vena caudalis, excrements were collected after one and four hours; after 24 hours, five mice were sacrificed from each group, another five were sacrificed after 96 hours. Blood, heart, lung, liver, pancreas, spleen, kidney, urinary bladder, wall of the colon, colon content, stomach, stomach content, thyroid gland, brain, femur, ovaries, parts of skin and muscles, and excrements from each mouse were removed. The organs and excrements in the measuring vessels were weighed and measured in a well of NaI (T1) scintillation detector.
Ten mice were medicated with CaCl2 in the concentration of 1.11 g/L for one week prior to administration of ^223Ra. The solution was used to feed per os ad libitum throughout the experiment. Table 3. Biodistribution of 223Ra with CaCl2
15 mice were pre-medicated with vitamin D3, 160 IU/mouse (0.02 mL of triglyceride oil solution of vitamin D3; 0.2 mg/ml) administered per os with part of the feed, three times a week for one week prior to administration of ^223Ra. Five of these mice were eliminated during the experiment because they refused vitamin intake. Table 4. Biodistribution of 223Ra with vitamin D3
Ten mice were medicated with zoledronic acid; 0.1 mL preparation/mouse was taken from the 4 mg/100 mL infusion solution and administered subcutaneously twice a week for one week before administration of ^223Ra. Table 5. Biodistribution of 223Ra with zoledronic acid
Ten mice were used as a control group. Table 6. Biodistribution of 223Ra
(§2) Experimental layout was analogous to Example 1 or 2. In the mouse model, the animals were pre-medicated by oral administration of L-arginine for one week. L-arginine was added to the mouse food once a day. The day before administration of radium, Ca2^+ was administered orally in the form of a soluble salt. Subsequently, Ra-223 was administered intravenously as a solution of RaCl2 in physiological NaCl saline.
Experimental layout was analogous to Example 3. In the mouse model, the animals were pre-medicated by subcutaneous injection of calcitonin for one week so that its serum concentration is about 5 nM. Two days before administration of Ra-223, Ca^2+ was administered orally in the form of a soluble salt. Subsequently, Ra-223 was administered intravenously as a solution.

[3] = intravenously or subcutaneously; cited from earlier work
[4] = Biodistribution and elimination of 223Ra in mice after i.v. administration; assay type: in vivo, female outbred CD1 mice; conditions: one week pre-medication, oral soluble Ca2+ salt before Ra-223 i.v.; result in words
Protocol: as §1, with “detector. […]” for “detector.”
as §2, with “Subsequently, Ra-223 was administered intravenously as a solution of RaCl2 in physiological NaCl saline.” left out

[Cl][223Ra][Cl] [223Ra, radium-223 dichloride]
activity in the blood ([1]; 24 hours after injection): less than one percent
administered activity remains in the blood ([1]; after four hours): approximately four percent
volume of distribution ([1]; after intravenous injection): higher than the blood volume
activity remains in the blood ([1]; fifteen minutes after the injection): about 20%
activity administered excreted from the body ([1]; whole-body measurement seven days after injection, on average): 76%
uptake in other organs such as the heart, liver, kidney, urinary bladder, and spleen ([1]; within four hours after injection): No significant uptake
Kidney %ID/g after 24 h ([2]; 223Ra ca 200 kBq/animal i.v., kidney, 24 h): 1.76 %ID/g
Kidney %ID/g after 96 h ([2]; 223Ra ca 200 kBq/animal i.v., kidney, 96 h): 0.32 %ID/g
Large intestine content %ID/g after 24 h ([2]; 223Ra ca 200 kBq/animal i.v., large intestine content, 24 h): 2.14 %ID/g
Large intestine content %ID/g after 96 h ([2]; 223Ra ca 200 kBq/animal i.v., large intestine content, 96 h): 0.27 %ID/g
Left femur %ID/g after 24 h ([2]; 223Ra ca 200 kBq/animal i.v., left femur, 24 h): 13.37 %ID/g
Left femur %ID/g after 96 h ([2]; 223Ra ca 200 kBq/animal i.v., left femur, 96 h): 10.33 %ID/g
Liver %ID/g after 24 h ([2]; 223Ra ca 200 kBq/animal i.v., liver, 24 h): 0.17 %ID/g
Liver %ID/g after 96 h ([2]; 223Ra ca 200 kBq/animal i.v., liver, 96 h): 0.10 %ID/g
Spleen %ID/g after 24 h ([2]; 223Ra ca 200 kBq/animal i.v., spleen, 24 h): 8.59 %ID/g
Spleen %ID/g after 96 h ([2]; 223Ra ca 200 kBq/animal i.v., spleen, 96 h): 6.77 %ID/g
Thyroid %ID/g after 24 h ([2]; 223Ra ca 200 kBq/animal i.v., thyroid, 24 h): 0.39 %ID/g
Thyroid %ID/g after 96 h ([2]; 223Ra ca 200 kBq/animal i.v., thyroid, 96 h): 0.07 %ID/g
In total after 24 h eliminated in excrements ([2]; 223Ra in excrements, 24 h): 33.54 ± 16.22 % ID
In total after 96 h eliminated in excrements ([2]; 223Ra in excrements, 96 h): 36.43 ± 12.31 % ID
In total after 24 h eliminated in urine ([2]; 223Ra in urine, 24 h): 16.24 ± 2.29 % ID
In total after 96 h eliminated in urine ([2]; 223Ra in urine, 96 h): 17.73 ± 2.34 % ID

N=C(N)NCCC[C@H](N)C(=O)O [L-arginine]
Ra uptake in the organism ([2]; one week pre-medication, oral soluble Ca2+ salt before Ra-223 i.v., result in words): Ra uptake and resorption increased in the organism

O=P(O)(O)C(O)(Cn1ccnc1)P(=O)(O)O [zoledronic acid]
NOAEL [3]: 0.02 mg/kg/day

calcitonin
Ra uptake in the organism [4]: Ra-223 uptake increased in the organism

Reference: patent EP3563875A1, “RADIUM FOR RADIONUCLIDE THERAPY, IN COMBINATION WITH CALCIUM […] TREATMENT” (priority 2018, dated 2019)
